{
  "source": "patent US11433038B2",
  "about": "“High concentration medicant solutions for treating neurological disorders” (Cerebral Therapeutics, Inc., priority 2017, dated 2022)",
  "key": {"[1]": {"settings": "on the order of; cited from earlier work"}, "[2]": {"experiment": "pH titration of sodium valproate solutions (5 mL) with 25 mM HCl (FIG. 7)"}, "[3]": {"experiment": "pH of aqueous sodium valproate solutions", "type": "physicochemical"}, "human subjects": {"test_system": "human subjects", "experiment": "subject-reported effects during direct brain (CSF) administration of valproate", "type": "in vivo"}, "[4]": {"experiment": "valproate concentration in blood serum and cerebrospinal fluid after administration was stopped (FIG. 1-3)", "type": "in vivo", "settings": "human subjects, FIG. 2", "protocol": "The subjects have been administered different dosage levels of valproate using different concentrations of valproate in solution. […] The subjects have been administered different dosage levels of valproate using different concentrations of valproate in solution. […] The subject has been administered 60 mg/day total of valproate using a pump which provides direct regional administration of valproate to the subject's brain using a 100 mg/mL solution."}, "[5]": {"settings": "reported solubility limit; cited from earlier work"}, "[6]": {"experiment": "solubility of sodium valproate in water", "settings": "early emulsion experiments"}, "[7]": {"settings": "0.4% sodium citrate (13.6 mM) in 150 mg/mL (0.9 M) sodium valproate"}, "[8]": {"settings": "150 mg/mL sodium valproate, 5 mL, 25 mM HCl"}},
  "note": "“Also recorded” adds a separate entry of the source. Where a name gives a salt, the structure may show the parent alone.",
  "data": [
    {"smiles": "NCC(CC(=O)O)c1ccc(Cl)cc1", "note": "(stereo not shown) [Baclofen]", "values": [
      {"measurement": "half-life", "setting": "[1]", "result": "five"}
    ]},
    {"smiles": "O=C(O)CC(O)(CC(=O)O)C(=O)O", "note": "[sodium citrate]", "values": [
      {"measurement": "effect of sodium citrate on buffer capacity", "setting": "[2]; [7]", "result": "does not provide any measurable increase in buffering capacity above pH 7; also recorded: virtually no effect"},
      {"measurement": "effect of sodium citrate on initial pH", "setting": "[2]; [7]", "result": "nor does it significantly change the initial pH"}
    ]},
    {"smiles": "CCCC(CCC)C(=O)[O-].[Na+]", "note": "[sodium valproate]", "values": [
      {"measurement": "pH of solution", "setting": "[3]; 150 mg/mL sodium valproate in water", "result": "approximately 8.3"},
      {"measurement": "pH of solution", "setting": "[3]; more concentrated solutions (>350 mg/mL)", "result": "above 9"},
      {"measurement": "perception of body temperature", "setting": "human subjects; human subjects receiving valproate to the brain", "result": "always cold"},
      {"measurement": "nausea at therapeutic level", "setting": "human subjects; human subjects, on reaching a therapeutic level", "result": "feeling of nauseous which seems to pass over time"},
      {"measurement": "concentration in cerebrospinal fluid over time", "setting": "[4]", "result": "drops quickly"},
      {"measurement": "solubility limits in water, commonly reported", "setting": "[5]", "result": "50 to 100", "unit": "mg/mL"},
      {"measurement": "volume of 25 mM HCl at which the pH hits the pKa", "setting": "[2]; 10 mM sodium valproate, 5 mL", "result": 0.6, "unit": "mL"},
      {"measurement": "pH at start of titration", "setting": "[2]; 10 mM sodium valproate, 5 mL, before acid", "result": 6.6},
      {"measurement": "pH after 0.6 mL of acid", "setting": "[2]; 10 mM sodium valproate, 5 mL, 0.6 mL of 25 mM HCl", "result": 4.81},
      {"measurement": "pH after 0.7 mL of acid", "setting": "[2]; 10 mM sodium valproate, 5 mL, 0.7 mL of 25 mM HCl", "result": 4.74},
      {"measurement": "pH after 1 mL of acid", "setting": "[2]; 10 mM sodium valproate, 5 mL, 1 mL of 25 mM HCl added in 0.1 mL increments", "result": 4.36},
      {"measurement": "change in pH on titration", "setting": "[2]; 150 mg/mL sodium valproate", "result": "minimal"},
      {"measurement": "pH at last point of titration curve", "setting": "[2]; [8]", "result": 7.30},
      {"measurement": "pH at second-to-last point of titration curve", "setting": "[2]; [8]", "result": 7.34},
      {"measurement": "buffering of concentrated solutions", "setting": "[2]; concentrated solutions of sodium valproate", "result": "strongly buffer solutions at pH>8"}
    ]},
    {"smiles": "CCCC(CCC)C(=O)O", "note": "[valproic acid]", "values": [
      {"measurement": "behaviour of emulsified droplets of pure valproic acid (liquid) in water", "setting": "[6]", "result": "dissolving into the water"}
    ]}
  ]
}
